# Where two headings read alike, the source gives them in different places. Where a SMILES comes first, the peptide text is derived from it. [ ]: non-standard residue; d: D form. The star is where a group is joined. Dolaproine = CO[C@@H]([C@@H]1CCCN1)[C@@H](C)C(=O)O; X4 = CC1=C(C*)C2=C(C)C3(CC3)[C@@](C)(O)C(=O)C2=C1; Dil = CC[C@H](C)[C@H](NC)[C@@H](CC(=O)O)OC; X1 = C[C@@H](N*)[C@@H](O)c1ccccc1; NMeV = CN[C@H](C(=O)O)C(C)C
# Legend:
# [1] = tested on: MV522 Target Cell Line (lung-derived adenocarcinoma); test: cells; conditions: MV522, 48 h, read-out: Mean IC50 value
# [2] = tested on: MV522 Target Cell Line (lung-derived adenocarcinoma); test: cells; conditions: MV522, 2 h, read-out: Mean IC50 value
# [3] = tested on: 8392B Nontarget Cell Line (hematopoietic); test: cells; conditions: 48 h, read-out: Mean IC50 value
# [4] = tested on: NCI 60 cell line panel; test: NCI DTP 60 cell line screen assay; conditions: for Activity Value: NCI 60 cell line screen, negative = lyse tumor cells, zero = no growth, positive = slower growth; for GI50: read-out: Mean GI50 inhibition
# Source text: An ADC is engulfed by a tumor cell, transported to the endosomes (pH<6.0) and then into the lysozomes (pH<4). […] 4). Cancer cells can become resistant to various toxins and drugs through the development of what is termed multi-drug resistance. This process is known to occur through several different mechanisms.
# [5] = tested on: 8392B Nontarget Cell Line (hematopoietic); test: cells; conditions: 2 h
# [6] = tested on: 8392B Nontarget Cell Line (hematopoietic); conditions: read-out: Mean IC50 value, 48 hr exposure, ± SD, N = 3 unless otherwise indicated
# [7] = tested on: 8392B Nontarget Cell Line (hematopoietic); conditions: read-out: Mean IC50 value, 2 hr exposure, ± SD, N = 3 unless otherwise indicated
# [8] = read-out: Mean IC50 value, 8392B Nontarget Cell Line, 2 hr exposure, ± SD, N = 3 unless otherwise indicated
Structure (SMILES),IC50 [1] [µM],IC50 [2] [µM],IC50 [3] [µM],"IC50 [5, 8] [µM]",also measured
CC1=CC2=C(C)C3(CC3)[C@@](C)(O)C(=O)C2=C1 [Analog 001],0.35 ± 0.02,2.2 ± 0.1,0.83 ± 0.1,,
CC1=C(CO)C2=C(C)C3(CC3)[C@@](C)(O)C(=O)C2=C1 [Analog 002],,,,,MDR Activity [4]: Yes; Cytotoxicity ([4]; ability to actually kill tumor cells versus only inhibiting growth): Yes
CC(=O)OCOCC1=C(C)C=C2C(=O)[C@](C)(O)C3(CC3)C(C)=C21 [Analog 008],0.63 ± 0.08,0.87 ± 0.09,15.1 ± 2.2,,
CC1=C(CCCO)C2=C(C)C3(CC3)[C@@](C)(O)C(=O)C2=C1 [Analog 009],,,43.2 ± 2.3,47.1 ± 11,
CC1=C(CCC=O)C2=C(C)C3(CC3)[C@@](C)(O)C(=O)C2=C1 [Analog 010],,,14.5 ± 1.7,29.4 ± 1.6,
CC1=C(C=O)C2=C(C)C3(CC3)[C@@](C)(O)C(=O)C2=C1 [Analog 011],,4.9 ± 0.9,40.4 ± 6.7,> 100,
CC1=C([N+](=O)[O-])C2=C(C)C3(CC3)[C@@](C)(O)C(=O)C2=C1 [Analog 012],0.32 ± 0.09,5.15 ± 1.35,18.8 ± 2.8,42.2 ± 5,
CCOCC1=C(C)C=C2C(=O)[C@](C)(O)C3(CC3)C(C)=C21 [Analog 016],,0.49 ± 0.13,0.87 ± 0.06,> 100,
CCOC(CCC1=C(C)C=C2C(=O)[C@](C)(O)C3(CC3)C(C)=C21)OCC [Analog 040],,,5.2 ± 0.47,,
CC(=O)N[C@@H](CSCC1=C(C)C=C2C(=O)[C@](C)(O)C3(CC3)C(C)=C21)C(=O)N[C@@H](Cc1ccccc1)C(=O)NCC(=O)N[C@H](C=O)CC(C)C [Analog 083] (Ac-C(X4)FGL-aldehyde),37.2 ± 2.9,,> 42,,
CC(=O)N[C@@H](CSCC1=C(C)C=C2C(=O)[C@](C)(O)C3(CC3)C(C)=C21)C(=O)N[C@@H](CC(C)C)C(=O)NCC(=O)N[C@@H](C=O)Cc1ccccc1 [Analog 084] (Ac-C(X4)LG[dF]-aldehyde),28.2 ± 1.4,,> 42,,
CC(=O)N[C@@H](CSCC1=C(C)C=C2C(=O)[C@](C)(O)C3(CC3)C(C)=C21)C(=O)N[C@@H](CC(C)C)C(=O)N[C@H](CC(C)C)C(=O)N[C@H](C=O)CC(C)C [Analog 087] (Ac-C(X4)L[dL]L-aldehyde),24.7 ± 3.9,> 40,,> 40,
CC1=C(CSC[C@H](NC(=O)CC[C@@H](N)C(=O)O)C(=O)NCC(=O)O)C2=C(C)C3(CC3)[C@@](C)(O)C(=O)C2=C1 [Analog 089],15.5 ± 2.8,19.3 ± 5.7,,> 60,
CC(=O)O[C@@]1(C)C(=O)C2=CC(CO)=CC2=C(C)C12CC2 [Analog 090],2.9 ± 0.4,2.5 ± 0.4,3.8 ± 0.3,1.6 ± 0.2,
CC(=O)OCCCC1=C(C)C=C2C(=O)[C@](C)(O)C3(CC3)C(C)=C21 [Analog 094],,0.8 ± 0.1,0.11 ± 0.01,9 ± 1.7,
CC1=C(CSc2nccn2C)C2=C(C)C3(CC3)[C@@](C)(O)C(=O)C2=C1 [Analog 096],6.2 ± 0.6,,> 3,> 88,
CC1=C(CSC[C@@H](C)C(=O)N2CCC[C@H]2C(=O)O)C2=C(C)C3(CC3)[C@@](C)(O)C(=O)C2=C1 [Analog 098],4.6 ± 0.25,18.8 ± 2.5,11.7 ± 1.8,> 65,
CC(=O)OCC1=C(CO)C=C2C(=O)[C@](C)(OC(C)=O)C3(CC3)C(C)=C21 [Analog 103],5.9 ± 0.4,31.8 ± 4.9,,12.1 ± 2,
C/C(C=O)=C1\[C@@H](O)C[C@]1(C)[C@H]1CC(C)(C)C[C@@H]1O [Analog 105],2.1 ± 0.4,7.3 ± 1.2,,,IC50 ([5]; read-out: Mean IC50 value): > 100 µM
CC1=C(CCC(=O)OC2CCC3(C)C(CCC4C3CC[C@]3(C)C(=O)CCC43)C2)C2=C(C)C3(CC3)[C@@](C)(O)C(=O)C2=C1 (stereo partly shown) [Analog 112],,,5.2 ± 0.3,14.9 ± 0.1,
C=CCCC1=C(C)C=C2C(=O)[C@](C)(O)C3(CC3)C(C)=C21 [Analog 113],14.1 ± 3,85 ± 0.7,7.8 ± 1,> 93,
CC1=C(CCC2CO2)C2=C(C)C3(CC3)[C@@](C)(O)C(=O)C2=C1 (stereo partly shown) [Analog 114],0.26 ± 0.07,1.5 ± 0.1,0.7 ± 0.1,25.1 ± 1,
CC1=C(CCC=NO)C2=C(C)C3(CC3)[C@@](C)(O)C(=O)C2=C1 [Analog 115],,,0.63 ± 0.06,,
CC1=C2C(=C[C@@](C)(COC(=O)CCCC(=O)O)C2OC(=O)CCCC(=O)O)C(=O)[C@](C)(O)C12CC2 (stereo partly shown) [Analog 117],,,0.01 ± 0.002,,

Structure (SMILES),IC50 [1] [µM],IC50 [2] [µM],IC50 [3] [µM],"IC50 [5, 8] [µM]",also measured
CC1=C(CCC(O)CO)C2=C(C)C3(CC3)[C@@](C)(O)C(=O)C2=C1 (stereo partly shown) [Analog 119],,,> 10,> 33,
CC1=C(CCC=NN=CCCC2=C(C)C=C3C(=O)[C@@](C)(O)C4(CC4)C(C)=C32)C2=C(C)C3(CC3)[C@@](C)(O)C(=O)C2=C1 [Analog 120],0.6 ± 0.1,2.8 ± 0.9,0.51 ± 0.11,19.1 ± 4.6,
CC1=C(CCC=NNc2ccc([N+](=O)[O-])cc2[N+](=O)[O-])C2=C(C)C3(CC3)[C@@](C)(O)C(=O)C2=C1 [Analog 125],,3.7 ± 0.6,0.6 ± 0.1,15.5 ± 1.4,
CC1=C(CCC(C)O)C2=C(C)C3(CC3)[C@@](C)(O)C(=O)C2=C1 (stereo partly shown) [Analog 128],0.37 ± 0.05,0.84 ± 0.23,0.8 ± 0.07,> 35,
CC1=CC2=C(C)C3(CC3)[C@@](C)(O)C(O)C2=C1 (stereo partly shown) [Analog 129],19.7 ± 1.9,> 136,39.4 ± 9.2,> 136,
CC(=O)ON(C(C)=O)c1ccc(C(=O)OC[C@]2(C)C=C3C(=O)[C@](C)(O)C4(CC4)C(C)=C3C2OC(=O)c2ccc(N(OC(C)=O)C(C)=O)cc2)cc1 (stereo partly shown) [Analog 140],,,,,IC50 [6]: > 14 µM
COC(=O)C1=C(C(=O)OC)C23C=C(C)C1C2=C(C)C1(CC1)[C@@](C)(O)C3=O (stereo partly shown) [Analog 142],,,,,Activity Value [4]: −5; MDR Activity [4]: Yes
CC1=C(CSc2nc3ccccc3s2)C2=C(C)C3(CC3)[C@@](C)(O)C(=O)C2=C1 [Analog 147],,,,,IC50 [7]: > 76 µM
CC1=C(CSc2nnnn2-c2ccc(O)cc2)C2=C(C)C3(CC3)[C@@](C)(O)C(=O)C2=C1 [Analog 154],,,,,IC50 [7]: > 70 µM
CC1=C2C(=CC(C)(CO[Si](C)(C)C(C)(C)C)C2OC(=O)c2ccc(S(=O)(=O)F)cc2)C(=O)C(C)(O)C12CC2 (stereo not shown) [Analog 219],,,,,IC50 [6]: > 52 µM; IC50 [7]: > 52 µM
CCCCCCCC/C=C/CCCCCCCC(=O)OCC1=C(C)C=C2C(=O)[C@](C)(O)C3(CC3)C(C)=C21 [Analog 226],,,,,IC50 [6]: > 59 µM; IC50 [7]: > 59 µM
CCCCCCCC/C=C/CCCCCCCC(=O)OCCCC1=C(C)C=C2C(=O)[C@](C)(O)C3(CC3)C(C)=C21 [Analog 227],,,,,IC50 [7]: > 57 µM
CC(=O)OC[C@]1(C)C=C2C(=O)[C@](C)(O)C3(CC3)C(C)=C2[C@H]1OC(=O)N(C)CCN(C)C(=O)OC(C)(C)C [Analog 334],,,,,Activity Value [4]: −11; MDR Activity [4]: Yes
CC(=O)O[C@@H]1C2=C(C)C3(CC3)[C@@](C)(O)C(=O)C2=C[C@@]1(C)CO [Analog 371],,,,,Activity Value [4]: −18; MDR Activity [4]: Yes
CC1=C2C(=C[C@@](C)(C=O)[C@@H]2O)C(=O)[C@](C)(O)C12CC2 [Analog 383],,,,,Activity Value [4]: −1; MDR Activity [4]: Yes
CC1=C(CNO)C2=C(C)C3(CC3)[C@@](C)(O)C(=O)C2=C1 [Analog 394],,,,,Activity Value [4]: −2; MDR Activity [4]: Yes
COc1cc2cc(c1Cl)N(C)C(=O)C[C@H](OC(=O)[C@H](C)N(C)C(=O)CCS)[C@]1(C)O[C@H]1[C@H](C)[C@@H]1C[C@@](O)(NC(=O)O1)[C@H](OC)/C=C/C=C(\C)C2 [DM1],,,,,Activity Value [4]: +8
CC[C@H](C)[C@@H]([C@@H](CC(=O)N1CCC[C@H]1[C@H](OC)[C@@H](C)C(=O)N[C@@H](Cc1ccccc1)c1nccs1)OC)N(C)C(=O)[C@@H](NC(=O)[C@H](C(C)C)N(C)C)C(C)C [Dolstatin-10],,,,,"Mean LD50 cytotoxic ([4]; NCI DTP 60 cell line, mean): >50,000 nM; Mean TGI cytostatic ([4]; NCI DTP 60 cell line, mean): 2,680 nM; GI50 ([4]; NCI DTP 60 cell line, mean): 0.017 µM"
C/C(=C\c1csc(C)n1)[C@@H]1C[C@@H]2O[C@@H]2CCC[C@H](C)[C@H](O)[C@@H](C)C(=O)C(C)(C)[C@@H](O)CC(=O)O1 [Epothilone A],,,,,Activity Value [4]: +31
CO[C@@H]1[C@H](O)CC[C@]2(CO2)[C@H]1[C@@]1(C)O[C@@H]1CC=C(C)C [Fumagillol],,,,,"Mean LD50 cytotoxic ([4]; NCI DTP 60 cell line, mean): >50,000 nM"
"CC[C@H](C)[C@@H]([C@@H](CC(=O)N1CCC[C@H]1[C@H](OC)[C@@H](C)C(=O)N[C@H](C)[C@@H](O)c1ccccc1)OC)N(C)C(=O)[C@@H](NC(=O)[C@@H](NC)C(C)C)C(C)C [MMAE, monomethyl auristatin E] (H-[NMeV]V[Dil][Dolaproine]-X1)",,,,,Activity Value [4]: +21; MDR Activity [4]: No; MDR Activity ([4]; listed as MMA): not MDR active
COc1cc2cc(c1Cl)N(C)C(=O)C[C@H](OC(=O)[C@H](C)N(C)C(C)=O)[C@]1(C)O[C@H]1[C@H](C)[C@@H]1C[C@@](O)(NC(=O)O1)[C@H](OC)/C=C/C=C(\C)C2 [Maytansine],,,,,"GI50 ([4]; 60 cell): 0.019 µM; Mean LD50 cytotoxic ([4]; NCI DTP 60 cell line, mean): 49,200 nM"
C=C1C[C@H]2C=Nc3cc(OCCCOc4cc5c(cc4OC)C(=O)N4CC(=C)C[C@H]4C=N5)c(OC)cc3C(=O)N2C1 [Pyrrolo-benzodiazepines],,,,,"Mean LD50 cytotoxic ([4]; NCI DTP 60 cell line, mean): >23,000 nM"

# — patent US12269793B2, “Affinity illudofulvene conjugates” (AF Chemicals, LLC, priority 2019, dated 2025)
